NC(N)=NC(N)=NCCc1ccccc1
solubility (mole fraction)
Settings	278.15 K	283.15 K	288.15 K	293.15 K	298.15 K	303.15 K	308.15 K	313.15 K	318.15 K	323.15 K
in 1,4-dioxane	–	–	0.000166	0.000202	0.000249	0.000312	0.000379	0.00046	0.000551	0.00065
in DMF	0.0158	0.0191	0.0226	0.0256	0.0303	0.0353	0.0411	0.0491	0.0579	0.0655
in DMSO	–	–	–	0.0217	0.025	0.0305	0.0359	0.0431	0.0508	0.0603
in NMP	0.0113	0.014	0.017	0.0202	0.0235	0.028	0.0337	0.0409	0.0486	0.0579
in acetonitrile	0.000211	0.00026	0.000322	0.000398	0.000494	0.000596	0.00071	0.00084	0.00101	0.00119
in ethanol	0.00183	0.0022	0.00266	0.00322	0.00378	0.00449	0.00524	0.00614	0.00723	0.00847
in ethyl acetate	0.00157	0.00184	0.0022	0.00265	0.00318	0.00379	0.00445	0.00521	0.00603	0.00695
in ethylene glycol	0.0033	0.00366	0.00417	0.00481	0.00567	0.00677	0.00774	0.00919	0.011	0.0128
in isobutanol	0.000518	0.00063	0.000792	0.00095	0.00116	0.00139	0.00167	0.00197	0.00229	0.00265
in isopropanol	0.000814	0.000976	0.00118	0.00142	0.00174	0.00208	0.00247	0.00288	0.00334	0.00383
in methanol	0.00237	0.0028	0.00328	0.00385	0.00457	0.00532	0.00623	0.00743	0.00823	0.0103
in n-butanol	0.000627	0.000777	0.000923	0.00118	0.00142	0.00167	0.00194	0.00227	0.00265	0.00308
in n-propanol	0.000975	0.00116	0.00137	0.00173	0.00208	0.00249	0.0029	0.00341	0.00396	0.00452
in water	0.000389	0.000481	0.000585	0.000739	0.000888	0.00107	0.00126	0.00148	0.00175	0.00206

Source: BigSolDB 2.1
